# Data as given in article PMC8936499, “Cytochrome P450 168A1 from Pseudomonas aeruginosa is involved in the hydroxylation of biologically relevant fatty acids” (PLoS ONE, 2022).
# Like-named read-outs stand apart in the source and are kept apart here. Marks after values point to notes of the source that are not given here.
# Columns and labels:
# CYP168A1 [1] = conditions: cited from earlier work
# CYP168A1 [2] = molecular target: T1, CYP168A1 (Pseudomonas aeruginosa, UniProt Q9I107); assay: Fatty acid binding studies (spectral titration, type I difference spectra); conditions: for Low- to high-spin state change (%): from ΔAmax; for Kd: read-out: Ks, mean of four replicates ± SD
# Procedure: The absorbance difference spectra from 500 nm to 350 nm were determined after each incremental addition of fatty acid. Ligand saturation curves were constructed from the change in absorbance (ΔApeak-trough) against fatty acid concentration. The dissociation constant for the fatty acid-CYP168A1 complex (Ks) was determined by nonlinear regression (Levenberg-Marquardt algorithm) using a rearrangement of the Morrison equation [14] and the Michaelis-Menten equation. […]. All fatty acid binding experiments were undertaken in quadruplicate.
# In between ligand binding determinations, the quartz cuvettes were washed with deionized water and then soaked for 30 min in 2-propanol at room temperature to desorb any residual fatty acids from the cuvette surfaces, followed by rinsing a further three-times with 2-propanol and then deionized water prior to drying.
# CYP168A1 [3] = conditions: cited from earlier work; remark: listed apart in the source
# CYP168A1 [4] = molecular target: T1, CYP168A1; assay type: biochemical; conditions: 0.5% DMF in the CYP168A1 assay system
# Procedure: Assay mixtures were incubated at 37°C for 5 min prior to initiation with 4 mM β-NADPH-Na4 and then incubated for a further 2.5 hours at the same temperature. Fatty acids and their hydroxylated products were recovered by extraction with dichloromethane and dried in a vacuum centrifuge. TMS derivatisation of the samples and analysis by GCMS were performed as previously described. Percentage product formation was calculated from the GC peak areas of the fatty acid and the hydroxylated metabolites, with compound identities confirmed by mass fragmentation patterns of fatty acid standards.
# Control assays contained no azole, but an equivalent volume of DMF. Experiments were undertaken in duplicate.
# CYP168A1 [5] = molecular target: T1, CYP168A1; conditions: for Turnover no., ω-1- carbon hydroxylated / % Product, ω-1- carbon hydroxylated / Turnover no., ω-2- carbon hydroxylated / % Product, ω-2- carbon hydroxylated: 100 μM substrate, mean of two replicates ± standard error; for Turnover no., ω-1- carbon hydroxylated / Turnover no., ω-2- carbon hydroxylated: 0.25 μM CYP168A1, 37°C; for % Product, ω-1- carbon hydroxylated / % Product, ω-2- carbon hydroxylated: 0.25 μM CYP168A1, 2.5 h at 37°C; for hydroxylation rate at both the ω-1- and ω-2-positions (total): sum of ω-1 and ω-2 turnover
# CYP168A1 [6] = conditions: comparison with ref 40
# CYP168A1 [7] = molecular target: T1, CYP168A1; conditions: 50 μM substrate, 2 μM CYP168A1, 3 hours at 37°C
# CYP168A1 [8] = system: CYP168A1; parameters: method as in PMID 35085556; conditions: arachidonic acid as substrate, CYP168A1:ketoconazole ratio 5μM:10μM; cited from earlier work
# [9] = system: Streptomyces peucetius CYP147F1; parameters: method as in PMID 24055535; conditions: cited from earlier work
# CYP168A1 [10] = molecular target: T1, CYP168A1; assay: Azole binding studies (spectral titration, type II difference spectra); conditions: read-out: apparent dissociation constant (Kd) of azole-CYP168A1 complex; 2 μM CYP168A1, rearranged Morrison equation, duplicate
# Candida albicans CYP51 = system: Candida albicans CYP51; parameters: method as in PMID 23274672, PMID 20625155; conditions: cited from earlier work
# [11] = 5 μM CYP168A1, cuvette path length 10 mm
# [12] = 5 μM CYP168A1, path length 10 mm
# [13] = 5 μM CYP168A1, 0.1 M Tris-HCl pH 8.1, room temperature, rearranged Morrison equation
# T1 sequence (Q9I107 entry or part of it): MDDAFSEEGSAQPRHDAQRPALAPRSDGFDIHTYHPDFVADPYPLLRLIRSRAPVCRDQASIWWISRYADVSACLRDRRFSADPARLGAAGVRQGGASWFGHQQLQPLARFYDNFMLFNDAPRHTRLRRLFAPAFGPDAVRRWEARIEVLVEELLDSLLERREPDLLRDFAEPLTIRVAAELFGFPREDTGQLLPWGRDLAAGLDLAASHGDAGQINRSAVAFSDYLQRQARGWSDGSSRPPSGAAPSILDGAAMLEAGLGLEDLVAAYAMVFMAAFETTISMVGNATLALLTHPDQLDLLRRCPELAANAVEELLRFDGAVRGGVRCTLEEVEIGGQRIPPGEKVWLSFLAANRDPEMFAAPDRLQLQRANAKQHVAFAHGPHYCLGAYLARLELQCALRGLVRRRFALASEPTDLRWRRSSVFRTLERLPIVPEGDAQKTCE
smiles,measurement,setting,value
"CCCCC/C=C\C/C=C\C/C=C\C/C=C\CCCC(=O)O [Arachidonic acid, arachidonic acid]",Kd,CYP168A1 [1],960 nM
same,"Ks value, fold larger than stearic acid",CYP168A1 [2],9000 fold
same,fold-difference in apparent Ks values compared to stearic and linoleic acids,CYP168A1 [2],~9160 fold
same,ΔAmax,"CYP168A1 [2]; 5 μM CYP168A1, cuvette path length 4.5 mm",0.071 ±0.009 ^b
same,"Ks in this study, fold higher than recently reported",CYP168A1 [2]; compared with ref 28,over 400 fold
same,Low- to high-spin state change (%),"CYP168A1 [2]; 5 μM CYP168A1, path length 4.5 mm",31.6 ±4.0 ^b %
same,Low- to high-spin state change (%),"CYP168A1 [2]; 5 μM CYP168A1, path length 4.5 mm, listed as arachidonic acid",32%
same,Kd,"CYP168A1 [2]; 5 μM CYP168A1, Michaelis-Menten equation, saturation not achieved at 660 μM",458000 ± 87000 nM
same,Kd,"CYP168A1 [2]; 5 μM CYP168A1, Michaelis-Menten equation, saturation not achieved at 660 μM, listed as arachidonic acid",~460000 nM
same,CYP168A1 turnover number,CYP168A1 [3],0.222 min⁻¹
"CN(C)C=O [DMF, dimethylformamide]",reduction in oleic acid turnover,CYP168A1 [4],10 fold
"CCCCC/C=C\C/C=C\CCCCCCCC(=O)O [Linoleic acid, linoleic acid]",ΔAmax,CYP168A1 [2]; [11],0.142 ±0.013
same,Low- to high-spin state change (%),CYP168A1 [2]; [12],28.3 ±2.6%
same,Low- to high-spin state change (%),"CYP168A1 [2]; 5 μM CYP168A1, path length 10 mm, listed as linoleic acid",28%
same,Kd,CYP168A1 [2]; [13],< 50 nM
same,"Turnover no., ω-1- carbon hydroxylated",CYP168A1 [5],0.35 ± 0.03 min⁻¹
same,"Turnover no., ω-1- carbon hydroxylated",CYP168A1 [5]; listed as linoleic acid,0.35 min⁻¹
same,"% Product, ω-1- carbon hydroxylated",CYP168A1 [5],14 ± 1.3%
"CCCCCCCCCCCCCC(=O)O [Myristic acid, myristic acid]",fold-difference in apparent Ks values compared to stearic and linoleic acids,CYP168A1 [2],~5 fold
same,Low- to high-spin state change (%),CYP168A1 [2]; [12],22.8 ±1.6%
same,Low- to high-spin state change (%),"CYP168A1 [2]; 5 μM CYP168A1, path length 10 mm, listed as myristic acid",23%
same,Kd,CYP168A1 [2]; [13],249 ± 103 nM
same,Kd,"CYP168A1 [2]; 5 μM CYP168A1, 0.1 M Tris-HCl pH 8.1, room temperature, rearranged Morrison equation, listed as myristic acid",250 nM
same,"catalytic turnover, fold lower than palmitic acid",CYP168A1 [5],5.3 fold
same,fold less ω-1-hydroxy product formed than with palmitic acid as substrate,CYP168A1 [5],4.7 fold
same,fold less ω-2-hydroxy product formed than with palmitic acid as substrate,CYP168A1 [5],10.3 fold
same,"Turnover no., ω-1- carbon hydroxylated",CYP168A1 [5],0.27 ± 0.02 min⁻¹
same,"Turnover no., ω-2- carbon hydroxylated",CYP168A1 [5],0.033 ± 0.001 min⁻¹
same,"% Product, ω-1- carbon hydroxylated",CYP168A1 [5],11 ± 0.6%
same,"% Product, ω-2- carbon hydroxylated",CYP168A1 [5],1.3 ± 0.03%
same,hydroxylation rate at both the ω-1- and ω-2-positions (total),CYP168A1 [5],0.30 min⁻¹
"CCCCCCCC/C=C\CCCCCCCC(=O)O [Oleic acid, oleic acid]",ΔAmax,CYP168A1 [2]; [11],0.277 ±0.014
same,Low- to high-spin state change (%),CYP168A1 [2]; [12],55.4 ±2.8%
same,Low- to high-spin state change (%),"CYP168A1 [2]; 5 μM CYP168A1, path length 10 mm, listed as oleic acid",55%
same,Kd,CYP168A1 [2]; [13],142 ± 12 nM
same,Kd,"CYP168A1 [2]; 5 μM CYP168A1, 0.1 M Tris-HCl pH 8.1, room temperature, rearranged Morrison equation, listed as oleic acid",~150 nM
same,"% Product, ω-1- carbon hydroxylated",CYP168A1 [5],49 ± 1.2%
"CCCCCCCCCCCCCCCC(=O)O [Palmitic acid, palmitic acid]",fold-difference in apparent Ks values compared to stearic and linoleic acids,CYP168A1 [2],~2 fold
same,ΔAmax,CYP168A1 [2]; [11],0.290 ±0.015
same,Low- to high-spin state change (%),CYP168A1 [2]; [12],58.1 ±3.0%
same,Low- to high-spin state change (%),"CYP168A1 [2]; 5 μM CYP168A1, path length 10 mm, listed as palmitic acid",58%
same,Kd,CYP168A1 [2]; [13],117 ± 56 nM
same,Kd,"CYP168A1 [2]; 5 μM CYP168A1, 0.1 M Tris-HCl pH 8.1, room temperature, rearranged Morrison equation, listed as palmitic acid",120 nM
same,"Turnover no., ω-1- carbon hydroxylated",CYP168A1 [5],1.27 ± 0.10 min⁻¹
same,"Turnover no., ω-2- carbon hydroxylated",CYP168A1 [5],0.34 ± 0.10 min⁻¹
same,"Turnover no., ω-1- carbon hydroxylated",CYP168A1 [5]; listed as palmitic acid,1.27 min⁻¹
same,"Turnover no., ω-2- carbon hydroxylated",CYP168A1 [5]; listed as palmitic acid,0.34 min⁻¹
same,"% Product, ω-1- carbon hydroxylated",CYP168A1 [5],49 ± 3.8%
same,"% Product, ω-2- carbon hydroxylated",CYP168A1 [5],13 ± 4.0%
same,hydroxylation rate at both the ω-1- and ω-2-positions (total),CYP168A1 [5],1.61 min⁻¹
same,"turnover, fold greater than observed with Mycobacterium tuberculosis CYP124",CYP168A1 [6],23 fold
"CCCCCC/C=C\CCCCCCCC(=O)O [Palmitoleic acid, palmitoleic acid]",fold-difference in apparent Ks values compared to stearic and linoleic acids,CYP168A1 [2],~3 fold
same,ΔAmax,CYP168A1 [2]; [11],0.185 ±0.006
same,Low- to high-spin state change (%),CYP168A1 [2]; [12],37.0 ±1.2%
same,Low- to high-spin state change (%),"CYP168A1 [2]; 5 μM CYP168A1, path length 10 mm, listed as palmitoleic acid",37%
same,Kd,CYP168A1 [2]; [13],155 ± 83 nM
same,Kd,"CYP168A1 [2]; 5 μM CYP168A1, 0.1 M Tris-HCl pH 8.1, room temperature, rearranged Morrison equation, listed as palmitoleic acid",~150 nM
same,"Turnover no., ω-1- carbon hydroxylated",CYP168A1 [5],0.38 ± 0.06 min⁻¹
same,"Turnover no., ω-1- carbon hydroxylated",CYP168A1 [5]; listed as palmitoleic acid,0.38 min⁻¹
same,"% Product, ω-1- carbon hydroxylated",CYP168A1 [5],15 ± 2.4%
"CCCCCCCCCCCCCCCCCC(=O)O [Stearic acid, stearic acid]",Kd,CYP168A1 [1]; read-out: Ks reported for P. aeruginosa CYP168A1,327 nM
same,ΔAmax,CYP168A1 [2]; [11],0.328 ±0.020
same,"Ks in this study, fold lower than recently reported",CYP168A1 [2]; compared with ref 28,over 6 fold
same,Low- to high-spin state change (%),CYP168A1 [2]; [12],65.6 ±4.1%
same,Low- to high-spin state change (%),"CYP168A1 [2]; 5 μM CYP168A1, path length 10 mm, listed as stearic acid",66%
same,Kd,CYP168A1 [2]; [13],< 50 nM
same,"catalytic turnover, fold greater than that for linoleic acid",CYP168A1 [5],3.5 fold
same,fold less ω-1-hydroxy product formed than with palmitic acid as substrate,CYP168A1 [5],1.2 fold
same,fold less ω-2-hydroxy product formed than with palmitic acid as substrate,CYP168A1 [5],2 fold
same,"Turnover no., ω-1- carbon hydroxylated",CYP168A1 [5],1.07 ± 0.09 min⁻¹
same,"Turnover no., ω-2- carbon hydroxylated",CYP168A1 [5],0.17 ± 0.01 min⁻¹
same,"% Product, ω-1- carbon hydroxylated",CYP168A1 [5],41 ± 2.9%
same,"% Product, ω-2- carbon hydroxylated",CYP168A1 [5],6.6 ± 0.5%
same,hydroxylation rate at both the ω-1- and ω-2-positions (total),CYP168A1 [5],1.24 min⁻¹
CC(C)CCC[C@@H](C)[C@H]1CC[C@H]2[C@@H]3CCC4=CC(=O)CC[C@]4(C)[C@H]3CC[C@]12C [cholesta-4-ene-3-one],oxygenated products formed,CYP168A1 [7],no oxygenated products
CC(C)CCC[C@@H](C)[C@H]1CC[C@H]2[C@@H]3CC=C4C[C@@H](O)CC[C@]4(C)[C@H]3CC[C@]12C [cholesterol],oxygenated products formed,CYP168A1 [7],no oxygenated products
CC(=O)N1CCN(c2ccc(OCC3COC(Cn4ccnc4)(c4ccc(Cl)cc4Cl)O3)cc2)CC1 (stereo not drawn) [ketoconazole],reduction in enzyme activity,CYP168A1 [8],~70%
CCCCCCCCCCCC(=O)O [lauric acid],enzyme molecules undergoing low- to high-spin state transition,[9],95%
same,"CYP168A1 Km, fold higher than the Ks value",CYP168A1 [3],25 fold
same,CYP168A1 turnover number,CYP168A1 [3],0.138 min⁻¹
Clc1ccc(COC(Cn2ccnc2)c2ccc(Cl)cc2Cl)c(Cl)c1 (stereo not drawn) [miconazole],Kd,CYP168A1 [10],190 ± 60 nM
same,Kd,Candida albicans CYP51,26 nM
CC(C)(C)C(O)(CCc1ccc(Cl)cc1)Cn1cncn1 (stereo not drawn) [tebuconazole],Kd,CYP168A1 [10],180 ± 10 nM
same,Kd,Candida albicans CYP51,36 nM
C[C@]12CC[C@H]3[C@@H](CCC4=CC(=O)CC[C@@]43C)[C@@H]1CC[C@@H]2O [testosterone],oxygenated products formed,CYP168A1 [7],no oxygenated products
C[C@@H](c1ncncc1F)[C@](O)(Cn1cncn1)c1ccc(F)cc1F [voriconazole],Kd,CYP168A1 [10],2050 ± 540 nM
same,Kd,Candida albicans CYP51,10 nM
